Positions of bridges follow the written chain, without caps; N, C: chain ends. Non-standard residues stand in square brackets, D forms with d. Residues, ends and D or L forms follow the SMILES beside them. *: point of attachment. Threoninol(2S,3R) = C[C@@H](O)[C@H](CO)N*
How the values were obtained:
[1] = molecular target: Somatostatin receptor type 5 (Homo sapiens, UniProt P35346); test: Displacement of [125I]-somatostatin from human sst5 receptor after 2 hrs by beta scintillation counting analysis
Homo sapiens [2] = species: Homo sapiens; test: Selectivity ratio of Ki for human sst1 receptor to Ki for human sst4 receptor
[3] = molecular target: Somatostatin receptor type 1 (Homo sapiens, UniProt P30872); test: Displacement of [125I]-somatostatin from human sst1 receptor after 2 hrs by beta scintillation counting analysis
[4] = molecular target: Somatostatin receptor type 4 (Homo sapiens, UniProt P31391); test: Displacement of [125I]-somatostatin from human sst4 receptor after 2 hrs by beta scintillation counting analysis
[5] = molecular target: Somatostatin receptor type 2 (Homo sapiens, UniProt P30874); test: Displacement of [125I]-somatostatin from human sst2a receptor after 2 hrs by beta scintillation counting analysis
Homo sapiens [6] = species: Homo sapiens; test: Selectivity ratio of Ki for human sst2a receptor to Ki or human sst4 receptor
[7] = molecular target: Somatostatin receptor type 3 (Homo sapiens, UniProt P32745); test: Displacement of [125I]-somatostatin from human sst3 receptor after 2 hrs by beta scintillation counting analysis
Chain of Somatostatin receptor type 3 (P32745 whole entry): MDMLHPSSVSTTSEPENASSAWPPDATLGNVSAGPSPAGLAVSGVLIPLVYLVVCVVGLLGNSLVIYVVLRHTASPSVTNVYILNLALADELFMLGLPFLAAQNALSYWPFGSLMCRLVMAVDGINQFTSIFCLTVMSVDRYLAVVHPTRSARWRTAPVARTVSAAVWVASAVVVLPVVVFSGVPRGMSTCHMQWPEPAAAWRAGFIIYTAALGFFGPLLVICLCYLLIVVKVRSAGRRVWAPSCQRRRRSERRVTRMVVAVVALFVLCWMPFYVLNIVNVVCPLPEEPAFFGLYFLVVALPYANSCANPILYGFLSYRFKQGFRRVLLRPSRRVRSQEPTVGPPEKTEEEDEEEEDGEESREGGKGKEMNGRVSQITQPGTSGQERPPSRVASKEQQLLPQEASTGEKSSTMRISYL

Chain of Somatostatin receptor type 4 (P31391 whole entry): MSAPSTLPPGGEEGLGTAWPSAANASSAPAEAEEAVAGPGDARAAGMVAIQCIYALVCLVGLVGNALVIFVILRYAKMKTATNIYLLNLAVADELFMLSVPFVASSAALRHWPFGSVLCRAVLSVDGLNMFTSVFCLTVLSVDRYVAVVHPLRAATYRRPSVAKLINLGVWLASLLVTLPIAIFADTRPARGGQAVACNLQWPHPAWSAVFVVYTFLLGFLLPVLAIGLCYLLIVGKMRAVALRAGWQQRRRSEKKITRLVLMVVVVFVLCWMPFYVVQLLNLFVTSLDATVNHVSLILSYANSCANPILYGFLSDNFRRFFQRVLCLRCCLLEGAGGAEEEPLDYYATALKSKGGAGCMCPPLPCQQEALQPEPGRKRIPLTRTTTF
Chain of Somatostatin receptor type 5 (P35346 whole entry): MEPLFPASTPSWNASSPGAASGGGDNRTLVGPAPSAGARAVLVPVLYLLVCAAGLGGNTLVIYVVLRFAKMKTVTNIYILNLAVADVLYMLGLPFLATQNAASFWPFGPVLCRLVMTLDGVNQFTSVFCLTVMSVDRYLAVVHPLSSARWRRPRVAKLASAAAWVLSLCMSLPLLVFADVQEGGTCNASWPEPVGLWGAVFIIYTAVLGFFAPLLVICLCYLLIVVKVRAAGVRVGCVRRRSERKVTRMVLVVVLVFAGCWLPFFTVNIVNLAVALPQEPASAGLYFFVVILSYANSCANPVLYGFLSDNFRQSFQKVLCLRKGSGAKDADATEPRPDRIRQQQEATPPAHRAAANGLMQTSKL
Chain of Somatostatin receptor type 1 (P30872 whole entry): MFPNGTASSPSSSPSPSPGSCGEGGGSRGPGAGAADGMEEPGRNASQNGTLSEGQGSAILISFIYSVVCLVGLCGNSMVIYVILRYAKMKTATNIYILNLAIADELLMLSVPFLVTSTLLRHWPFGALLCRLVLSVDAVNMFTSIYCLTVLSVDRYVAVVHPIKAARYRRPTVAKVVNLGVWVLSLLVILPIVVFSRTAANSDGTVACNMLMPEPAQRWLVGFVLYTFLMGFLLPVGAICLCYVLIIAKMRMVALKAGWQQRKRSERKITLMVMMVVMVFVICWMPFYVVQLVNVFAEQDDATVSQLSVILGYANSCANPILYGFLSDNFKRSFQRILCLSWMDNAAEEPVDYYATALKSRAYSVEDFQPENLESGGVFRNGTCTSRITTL
Chain of Somatostatin receptor type 2 (P30874 whole entry): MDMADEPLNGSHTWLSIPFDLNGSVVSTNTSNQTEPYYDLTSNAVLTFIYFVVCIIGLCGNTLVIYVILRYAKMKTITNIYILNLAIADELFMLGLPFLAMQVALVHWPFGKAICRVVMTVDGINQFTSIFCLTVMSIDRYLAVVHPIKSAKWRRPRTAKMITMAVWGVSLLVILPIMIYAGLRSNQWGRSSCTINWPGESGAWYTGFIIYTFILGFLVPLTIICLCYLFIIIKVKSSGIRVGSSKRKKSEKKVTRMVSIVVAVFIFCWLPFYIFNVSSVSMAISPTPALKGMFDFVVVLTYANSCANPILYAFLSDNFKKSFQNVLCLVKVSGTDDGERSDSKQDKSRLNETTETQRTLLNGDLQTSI

Row | Structure (SMILES) | Ki [1] [µM] | inhibition [1] | Ratio Ki (Homo sapiens [2]) | Ki [3] [µM] | inhibition [3] | Ki [4] [µM] | inhibition [4] | Ki [5] [µM] | inhibition [5] | Ratio Ki (Homo sapiens [6]) | Ki [7] [µM] | inhibition [7]
1 | C[C@@H](O)CN1CCC(=O)N(Cc2ccccc2)CCC(=O)N(CCc2c[nH]c3ccccc23)CCC(=O)N(CCCCN)CCC1=O | 28 | Dose-dependent effect | 20 | 102 | Dose-dependent effect | 4.9 | Dose-dependent effect | 198 | Dose-dependent effect | 40 | 22 | Dose-dependent effect
2 | COC(=O)CCN(Cc1ccccc1)C(=O)CCN(C[C@@H](C)O)C(=O)CCN(CCCCN)C(=O)CCN(CCc1c[nH]c2ccccc12)C(=O)CCN(Cc1ccccc1)C(C)=O | 11 | Dose-dependent effect |  | 12 | Dose-dependent effect | 12 | Dose-dependent effect | 55 | Dose-dependent effect |  | 2.7 | Dose-dependent effect
3 | C[C@@H](O)[C@H](CO)NC(=O)[C@@H]1CSSC[C@H](NC(=O)[C@H](N)Cc2ccccc2)C(=O)N[C@@H](Cc2ccccc2)C(=O)N[C@H](Cc2c[nH]c3ccccc23)C(=O)N[C@@H](CCCCN)C(=O)N[C@@H]([C@@H](C)O)C(=O)N1 (H-[dF]CF[dW]KTC-{Threoninol(2S,3R)}; disulfide 2-7) |  |  |  |  | Dose-dependent effect |  | Dose-dependent effect |  | Dose-dependent effect |  |  | Dose-dependent effect
4 | COC(=O)CCN(Cc1ccccc1)C(=O)CCN(C[C@@H](C)O)C(=O)CCN(CCCCN)C(=O)CN(CCc1c[nH]c2ccccc12)C(=O)CCN(Cc1ccccc1)C(C)=O | 13.2 | Dose-dependent effect |  | 16 | Dose-dependent effect | 21 | Dose-dependent effect | 110 | Dose-dependent effect |  | 3.1 | Dose-dependent effect

The remaining compounds from weak to strong by Ki [1], led by results:

Row | Ki [1] [µM] | inhibition [1] | Ratio Ki (Homo sapiens [2]) | Ki [3] [µM] | inhibition [3] | Ki [4] [µM] | inhibition [4] | Ki [5] [µM] | inhibition [5] | Ratio Ki (Homo sapiens [6]) | Ki [7] [µM] | inhibition [7] | Structure (SMILES)
5 | 9.5 | Dose-dependent effect |  | 153 | Dose-dependent effect | 20 | Dose-dependent effect | 176 | Dose-dependent effect |  | 17 | Dose-dependent effect | C[C@@H](O)CN1CCC(=O)N(Cc2ccccc2)CCC(=O)N(CCc2c[nH]c3ccccc23)CC(=O)N(CCCCN)CCC1=O
6 | 2.1 | Dose-dependent effect |  | 16 | Dose-dependent effect | 7.2 | Dose-dependent effect | 27 | Dose-dependent effect |  | 2.4 | Dose-dependent effect | C[C@@H](O)CN1CCC(=O)N(Cc2ccccc2)CCC(=O)N(Cc2ccccc2)CCC(=O)N(CCc2c[nH]c3ccccc23)CC(=O)N(CCCCN)CCC1=O
7 | 1.7 | Dose-dependent effect |  | 8.2 | Dose-dependent effect | 10 | Dose-dependent effect | 44 | Dose-dependent effect |  | 4.6 | Dose-dependent effect | C[C@@H](O)CN1CCC(=O)N(Cc2ccccc2)CCC(=O)N(Cc2ccccc2)CCC(=O)N(CCc2c[nH]c3ccccc23)CCC(=O)N(CCCCN)CCC1=O
